Measurements reported in patent publication US10294202B2, “Pyrrolidinones as herbicides” (FMC Corporation, priority 2013, dated 2019).

What was measured:
[1] = test system: kochia; assay: Test C pre-/postemergence herbicide test; assay type: in vivo, Kochia scoparia
Text: Seeds of plant species selected from blackgrass (Alopecurus myosuroides), ryegrass, Italian (Italian ryegrass, Lolium multiflorum), wheat (winter wheat, Triticum aestivum), galium (catchweed bedstraw, Galium aparine), corn (Zea mays), crabgrass, large (large crabgrass, Digitaria sanguinalis), foxtail, giant (giant foxtail, Setaria faberii), johnsongrass (Sorghum halepense), lambsquarters (Chenopodium album), morningglory (Ipomoea coccinea), nutsedge, yellow (yellow nutsedge, Cyperus esculentus), pigweed (Amaranthus retroflexus), ragweed (common ragweed, Ambrosia elatior), soybean (Glycine max), barnyardgrass (Echinochloa crus-galli), oilseed rape (Brassica napus), waterhemp (common waterhemp, Amaranthus rudis), kochia (Kochia scoparia), oat, wild (wild oat, Avena fatua), surinam grass (Brachiaria decumbens), foxtail, green (green foxtail, Setaria viridis), goosegrass (Eleusine indica), bromegrass, downy (downy bromegrass, Bromus tectorum), nightshade (eastern black nightshade, Solanum ptycanthum), cocklebur (common cocklebur, Xanthium strumarium), cupgrass, woolly (woolly cupgrass, Eriochloa villosa), bermudagrass (Cynodon dactylon), sunflower, (common oilseed sunflower, Helianthus annuus), Russian thistle (Salsola kali) and velvetleaf (Abutilon theophrasti) were planted into a blend of loam soil and sand and treated preemergence with test chemicals formulated in a non-phytotoxic solvent mixture which included a surfactant. At the same time, plants selected from these crop and weed species and also barley (winter barley, Hordeum vulgare), […]), chickweed (common chickweed, Stellaria media), deadnettle (henbit deadnettle, Lamium amplexicaule), and canarygrass (littleseed canarygrass, Phalaris minor) were planted in pots containing Redi-Earth® planting medium (Scotts Company, 14111 Scottslawn Road, Marysville, Ohio 43041) comprising spaghnum peat moss, vermiculite, wetting agent and starter nutrients and treated with postemergence applications of test chemicals formulated in the same manner. Plants ranged in height from 2 to 18 cm (1- to 4-leaf stage) for postemergence treatments. Treated plants and controls were maintained in a greenhouse for 13 to 15 days, after which time all species were compared to controls and visually evaluated. Plant response ratings, summarized in Table C, are based on a scale of 0 to 100 where 0 is no effect and 100 is complete control. A dash (-) response means no test result.

[2] = test system: velvetleaf; assay: Test A pre-/postemergence herbicide test; assay type: in vivo, Abutilon theophrasti
Outline: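 Seeds sown in loam soil/sand blend received a preemergence directed soil spray of test chemical in non-phytotoxic solvent with surfactant; postemergence plants (2–10 cm, one- to two-leaf stage) were sprayed with the same formulation. After about 10 days in greenhouse, injury was rated visually versus untreated controls, 0 (no effect) to 100 (complete control).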

[3] = Preemergence, 62 g ai/ha, scale 0 to 100
[4] = Preemergence, 125 g ai/ha, scale 0 to 100 (0 no effect, 100 complete control)
[5] = Postemergence, 1000 g ai/ha, 0 to 100 scale (0 no effect, 100 complete control)
[6] = Preemergence, 1000 g ai/ha, visual rating on 0 to 100 scale (0 no effect, 100 complete control), approx. 10 days
[7] = Postemergence, 31 g ai/ha, scale 0 (no effect) to 100 (complete control)
[8] = Postemergence, 62 g ai/ha, scale 0 to 100 (0 no effect, 100 complete control)
[9] = Postemergence, 125 g ai/ha, scale 0 to 100 (0 no effect, 100 complete control)
[10] = Postemergence, 250 g ai/ha, scale 0 to 100 (0 no effect, 100 complete control)
[11] = Postemergence, 125 g ai/ha, 0 to 100 scale, 0 no effect, 100 complete control
[12] = Postemergence, 500 g ai/ha, 0 to 100 scale (0 no effect, 100 complete control)
[13] = Preemergence, 125 g ai/ha, visual rating on 0 to 100 scale (0 no effect, 100 complete control)
[14] = preemergence, 500 g ai/ha, 0 to 100 scale

O=C1NCC(c2cc(F)c(F)c(F)c2)C1C(=O)Nc1ccccc1C(F)(F)F (racemic) [Compound 33]
Plant response rating, Kochia [1, 3]: 0 | Plant response rating, Kochia [1, 4]: 0 | Plant response rating, Velvetleaf [2, 5]: 20 | Plant response rating, Velvetleaf [2, 6]: 0

O=C1NCC(c2cc(F)c(F)c(F)c2)C1C(=O)Nc1ccccc1F (racemic) [Compound 34]
Plant response rating, Kochia [1, 7]: 5 | Plant response rating, Kochia [1, 8]: 5 | Plant response rating, Kochia [1, 9]: 5 | Plant response rating, Kochia [1, 10]: 5 | Plant response rating, Kochia [1, 3]: 0 | Plant response rating, Kochia [1, 4]: 0 | Plant response rating, Velvetleaf [2, 5]: 20 | Plant response rating, Velvetleaf [2, 6]: 0

Cc1ccccc1NC(=O)C1C(=O)NCC1c1cc(F)c(F)c(F)c1 (racemic) [Compound 35]
Plant response rating, Kochia [1, 3]: 0 | Plant response rating, Kochia [1, 4]: 5 | Plant response rating, Velvetleaf [2, 5]: 0 | Plant response rating, Velvetleaf [2, 6]: 0

O=C1NCC(c2ccc(F)c(C(F)(F)F)c2)C1C(=O)Nc1ccccc1F (racemic) [Compound 76]
Plant response rating, Kochia [1, 7]: 40 | Plant response rating, Kochia [1, 8]: 50 | Plant response rating, Kochia [1, 9]: 50 | Plant response rating, Kochia [1, 10]: 65 | Plant response rating, Velvetleaf [2, 11]: 20 | Plant response rating, Velvetleaf [2, 12]: 60 | Velvetleaf plant response rating [2, 13]: 0 | Plant response rating, Velvetleaf [2, 14]: 0

O=C1NCC(c2ccccc2)C1C(=O)Nc1ccccc1F (racemic) [Compound 81]
Plant response rating, Kochia [1, 7]: 0 | Plant response rating, Kochia [1, 8]: 0 | Plant response rating, Kochia [1, 9]: 0 | Plant response rating, Kochia [1, 10]: 0 | Plant response rating, Velvetleaf [2, 11]: 0 | Plant response rating, Velvetleaf [2, 12]: 0 | Velvetleaf plant response rating [2, 13]: 0 | Plant response rating, Velvetleaf [2, 14]: 0

O=C1NCC(c2ccc(Cl)c(F)c2)C1C(=O)Nc1ccccc1F (centres unmarked) [Compound 53]
Plant response rating, Kochia [1, 3]: 0 | Plant response rating, Kochia [1, 4]: 0 | Plant response rating, Velvetleaf [2, 11]: 0 | Plant response rating, Velvetleaf [2, 12]: 0 | Velvetleaf plant response rating [2, 13]: 0 | Plant response rating, Velvetleaf [2, 14]: 0
